# Legend:
# HCV NS5B = biological target: T1, HCV NS5B (Hepatitis C virus genotype 1b, UniProt Q9WMX2); assay: HCV NS5B RdRp enzyme assay (standard / modified); type: biochemical; settings: HCV RdRp genotype 1b; standard or modified assay not specified; read-out: IC50
# T1 construct: The protein was expressed with an 18 amino acid C-terminal truncation to enhance the solubility; made in house; host or cells: E. coli BL21(DE3)
# Protocol: HCV NS5B RdRp cloning, expression, and purification. The cDNA encoding the NS5B protein of HCV, genotype 1b, was cloned into the pET21a expression vector. The protein was expressed with an 18 amino acid C-terminal truncation to enhance the solubility. The E. coli competent cell line BL21(DE3) was used for expression of the protein. Cultures were grown at 37° C. for ˜4 hours until the cultures reached an optical density of 2.0 at 600 nm. The cultures were cooled to 20° C. and induced with 1 mM IPTG. Fresh ampicillin was added to a final concentration of 50 μg/ml and the cells were grown overnight at 20° C.
# Cell pellets (3 L) were lysed for purification to yield 15-24 mgs of purified NS5B. The lysis buffer consisted of 20 mM Tris-HCl, pH 7.4, 500 mM NaCl, 0.5% triton X-100, 1 mM DTT, 1 mM EDTA, 20% glycerol, 0.5 mg/ml lysozyme, 10 mM MgCl2, 15 ug/ml deoxyribonuclease I, and Complete TM protease inhibitor tablets (Roche). After addition of the lysis buffer, frozen cell pellets were resuspended using a tissue homogenizer. To reduce the viscosity of the sample, aliquots of the lysate were sonicated on ice using a microtip attached to a Branson sonicator. The sonicated lysate was centrifuged at 100,000×g for 1 hr at 4° C. and filtered through a 0.2 μm filter unit (Corning).
# The protein was purified using two sequential chromatography steps: Heparin sepharose CL-6B and polyU sepharose 4B (Pharmacia). The chromatography buffers were identical to the lysis buffer but contained no lysozyme, deoxyribonuclease I, MgCl2 or protease inhibitor and the NaCl concentration of the buffer was adjusted according to the requirements for charging the protein onto the column. Each column was eluted with a NaCl gradient which varied in length from 5-50 column volumes depending on the column type. After the final chromatography step, the resulting purity of the enzyme is >90% based on SDS-PAGE analysis. The enzyme was aliquoted and stored at −80° C.
# Standard HCV NS5B RdRp enzyme assay. HCV RdRp genotype 1b assays were run in a final volume of 60 μl in 96 well plates (Corning 3600). The assay buffer is composed of 20 mM Hepes, pH 7.5, 2.5 mM KCl, 2.5 mM MgCl2, 1 mM DTT, 1.6 U RNAse inhibitor (Promega N2515), 0.01 mg/ml BSA (Sigma B6917), and 2% glycerol. All compounds were serially diluted (3-fold) in DMSO and diluted further in water such that the final concentration of DMSO in the assay was 2%. HCV RdRp genotype 1b enzyme was used at a final concentration of 28 nM. A polyA template was used at 6 nM, and a biotinylated oligo-dT12 primer was used at 180 nM final concentration. Template was obtained commercially (Amersham 27-4110). Biotinylated primer was prepared by Sigma Genosys. 3H-UTP was used at 0.6 μCi (0.29 μM total UTP). Reactions were initiated by the addition of enzyme, incubated at 30 ° C. for 60 min, and stopped by adding 25 μl of 50 mM EDTA containing SPA beads (4 μg/μl, Amersham RPNQ 0007). Plates were read on a Packard Top Count NXT after >1 hr incubation at room temperature.
# Modified HCV NS5B RdRp enzyme assay. A modified enzyme assay was performed essentially as described for the standard enzyme assay except for the following: The biotinylated oligo dT12 primer was precaptured on streptavidin-coated SPA beads by mixing primer and beads in assay buffer and incubating at room temperature for one hour. Unbound primer was removed after centrifugation. The primer-bound beads were resuspended in 20 mM Hepes buffer, pH 7.5 and used in the assay at final concentrations of 20 nM primer and 0.67 μg/μl beads. Order of addition in the assay: enzyme (1.75 nM) was added to diluted compound followed by the addition of a mixture of template (0.36 nM), 3H-UTP (0.6 μCi, 0.29 μM), and primer-bound beads, to initiate the reaction; concentrations given are final. Reactions were allowed to proceed for 4 hours at 30° C.
# IC50 values for compounds were determined using seven different [I]. […]
# HCV replicon cells = assay: HCV replicon FRET / luciferase assay; type: cell-based; settings: Hepatitis C virus, 50% reduction in FRET or luciferase activity in HCV replicon cells; read-out: EC50
# Protocol: FRET Assay Preparation. The HCV FRET screening assay was performed in 96-well cell culture plates. The FRET peptide (Anaspec, Inc.) (Taliani et al., Anal. Biochem. 1996, 240, 60-67) contains a fluorescence donor, EDANS, near one end of the peptide and an acceptor, DABCYL, near the other end. The fluorescence of the peptide is quenched by […] resonance energy transfer (RET) between the donor and the acceptor, but as the NS3 protease cleaves the peptide the products are released from RET quenching and the fluorescence of the donor becomes apparent. The assay reagent was made as follows: 5× cell Luciferase cell culture lysis reagent from Promega (#E153A) diluted to 1× with dH2O, NaCl added to 150 mM final, the FRET peptide diluted to 20 μM final from a 2 mM stock.
# To prepare plates, HCV replicon cells, with or without a Renilla luciferase reporter gene, were trypsinized and plated in a 96-well plate with titrated test compounds added in columns 3 through 12; columns 1 and 2 contained a control compound (HCV control inhibitor), and the bottom row contained cells with DMSO only. The plates were then placed in a CO2 incubator at 37° C.
# Assays. Subsequent to addition of the test compounds described above (FRET Assay Preparation), at various times the plate was removed and Alamar blue solution (Trek Diagnostics, #00-100) was added to measure cellular toxicity. After reading in a Cytoflour 4000 instrument (PE Biosystems), plates were rinsed with PBS and then used for FRET assay by the addition of 30 ul of the FRET peptide assay reagent described above (FRET Assay Preparation) per well. The plate was then placed into the Cytoflour 4000 instrument which had been set to 340 excite/490 emission, automatic mode for up to 20 cycles and the plate read in a kinetic mode. Typically, the signal to noise using an endpoint analysis after the reads was at least three-fold. Alternatively, after Alamar blue reading, plates were rinsed with PBS, then used for luciferase assay using the Promega Dual-Glo Luciferase Assay System or the Promega EnduRen Live Cell Substrate assay.
# Compound analysis was performed by quantification of the relative HCV replicon inhibition and the relative cytotoxicity values. To calculate cytoxicity values, the average Alamar Blue fluorescence signals from the control wells were set as 100% non-toxic. The individual signals in each of the compound test wells were then divided by the average control signal and multiplied by 100% to determine […]. To calculate the HCV replicon inhibition values, an average background value was obtained from the two wells containing the highest amount of HCV control inhibitor at the end of the assay period. These numbers were similar to those obtained from naïve Huh-7 cells. The background numbers were then subtracted from the average signal obtained from the control wells and this number was used as 100% activity. The individual signals in each of the compound test wells were then divided by the averaged control values after background subtraction and multiplied by 100% to determine percent activity. EC50 values were calculated as the concentration which caused a 50% reduction in FRET or luciferase activity. The two numbers generated for the compound plate, percent cytoxicity and percent activity, were used to determine compounds of interest for further analysis.
# T1 sequence (Q9WMX2 2420-2992): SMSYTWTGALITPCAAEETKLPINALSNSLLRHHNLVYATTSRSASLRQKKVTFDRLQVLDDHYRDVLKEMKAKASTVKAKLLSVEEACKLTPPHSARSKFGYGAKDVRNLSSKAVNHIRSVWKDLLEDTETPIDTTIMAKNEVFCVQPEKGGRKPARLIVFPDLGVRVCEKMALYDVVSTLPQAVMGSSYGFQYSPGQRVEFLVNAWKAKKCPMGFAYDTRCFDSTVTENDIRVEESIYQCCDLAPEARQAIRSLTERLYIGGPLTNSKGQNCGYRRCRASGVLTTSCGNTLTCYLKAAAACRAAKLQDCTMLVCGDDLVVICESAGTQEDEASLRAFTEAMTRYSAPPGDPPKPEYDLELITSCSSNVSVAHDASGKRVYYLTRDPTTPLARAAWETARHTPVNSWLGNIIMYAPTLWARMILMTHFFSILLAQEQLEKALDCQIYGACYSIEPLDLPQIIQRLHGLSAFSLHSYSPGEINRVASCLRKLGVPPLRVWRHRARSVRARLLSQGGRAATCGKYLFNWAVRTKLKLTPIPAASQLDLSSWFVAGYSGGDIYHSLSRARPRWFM
Compound,IC50 (HCV NS5B) [nM],EC50 (HCV replicon cells) [nM]
COc1ccc2c(c1)C1CC1(C(=O)N1[C@@H]3C[C@H]1CN(C)C3)Cn1c-2c(C2CCCCC2)c2ccc(C(=O)NS(=O)(=O)N(C)C)cc21 (some centres unmarked),2.4 to 500,2.4 to 500
COc1ccc2c(c1)C1CC1(C(=O)N1CC3CC(C1)c1cccc(=O)n1C3)Cn1c-2c(C2CCCCC2)c2ccc(C(=O)NS(=O)(=O)N(C)C)cc21 (centres unmarked),2.4 to 500,2.4 to 500
COc1ccc2c(c1)C1CC1(C(=O)N1CCN3CCC1CC3)Cn1c-2c(C2CCCCC2)c2ccc(C(=O)NS(=O)(=O)N(C)C)cc21 (centres unmarked),2.4 to 500,2.4 to 500
COc1ccc2c(c1)C1CC1(C(=O)N1CC3CCC1CN3)Cn1c-2c(C2CCCCC2)c2ccc(C(=O)NS(=O)(=O)C3CCCC3)cc21 (centres unmarked),2.4 to 500,> 1000
COc1ccc2c(c1)C1CC1(C(=O)N1CC3CCC1CN3)Cn1c-2c(C2CCCCC2)c2ccc(C(=O)NS(=O)(=O)CC(F)(F)F)cc21 (centres unmarked),2.4 to 500,> 1000
COc1ccc2c(c1)C1CC1(C(=O)N1CC3CCC1CN3)Cn1c-2c(C2CCCCC2)c2ccc(C(=O)NS(=O)(=O)CCC(F)(F)F)cc21 (centres unmarked),2.4 to 500,> 1000
COc1ccc2c(c1)C1CC1(C(=O)N1CC3CCC1CN3)Cn1c-2c(C2CCCCC2)c2ccc(C(=O)NS(=O)(=O)C3CCCCC3)cc21 (centres unmarked),2.4 to 500,> 1000
COc1ccc2c(c1)C1CC1(C(=O)N1CC3CCC1CN3)Cn1c-2c(C2CCCCC2)c2ccc(C(=O)NS(=O)(=O)C3CCC3)cc21 (centres unmarked),2.4 to 500,2.4 to 500
COc1ccc2c(c1)C1CC1(C(=O)N1C3CC1CN(C)C3)Cn1c-2c(C2CCCCC2)c2ccc(C(=O)NS(=O)(=O)CCCF)cc21 (centres unmarked),2.4 to 500,2.4 to 500
COc1ccc2c(c1)C1CC1(C(=O)N1C3CC1CN(C)C3)Cn1c-2c(C2CCCCC2)c2ccc(C(=O)NS(=O)(=O)CC(F)F)cc21 (centres unmarked),2.4 to 500,2.4 to 500
COc1ccc2c(c1)C1CC1(C(=O)N1C3CC1CN(Cc1ccccc1)C3)Cn1c-2c(C2CCCCC2)c2ccc(C(=O)NS(=O)(=O)C(C)C)cc21 (centres unmarked),2.4 to 500,2.4 to 500
COc1ccc2c(c1)[C@@H]1C[C@]1(C(=O)N1CC3CCC1CN3C)Cn1c-2c(C2CCCCC2)c2ccc(C(=O)NS(=O)(=O)N(C)C)cc21 (some centres unmarked),2.4 to 500,2.4 to 500
COc1ccc2c(c1)[C@@H]1C[C@]1(C(=O)N1CCC3CCC(C1)N3C)Cn1c-2c(C2CCCCC2)c2ccc(C(=O)NS(=O)(=O)N(C)C)cc21 (some centres unmarked),2.4 to 500,2.4 to 500
COc1ccc2c(c1)C1CC1(C(=O)N1CC3COCC(C1)N3)Cn1c-2c(C2CCCCC2)c2ccc(C(=O)NS(=O)(=O)N(C)C)cc21 (centres unmarked),2.4 to 500,2.4 to 500
COc1ccc2c(c1)[C@@H]1C[C@]1(C(=O)N1C3CCCC1CN(C)C3)Cn1c-2c(C2CCCCC2)c2ccc(C(=O)NS(=O)(=O)N(C)C)cc21,2.4 to 500,2.4 to 500
COc1ccc2c(c1)C1CC1(C(=O)N1CC3COCC(C1)N3C)Cn1c-2c(C2CCCCC2)c2ccc(C(=O)NS(=O)(=O)N(C)C)cc21 (centres unmarked),2.4 to 500,2.4 to 500
COc1ccc2c(c1)[C@@H]1C[C@]1(C(=O)N1C3CCCC1C(=O)N(C)C3=O)Cn1c-2c(C2CCCCC2)c2ccc(C(=O)NS(=O)(=O)N(C)C)cc21,2.4 to 500,2.4 to 500
COc1ccc2c(c1)C1CC1(C(=O)N1C3CCCC1CN(C)C3)Cn1c-2c(C2CCCCC2)c2ccc(C(=O)NS(=O)(=O)C(C)C)cc21 (centres unmarked),2.4 to 500,2.4 to 500
COc1ccc2c(c1)C1CC1(C(=O)N1C3COCC1CN(C(C)C)C3)Cn1c-2c(C2CCCCC2)c2ccc(C(=O)NS(=O)(=O)N(C)C)cc21 (centres unmarked),2.4 to 500,2.4 to 500
COc1ccc2c(c1)C1CC1(C(=O)N1C3COCC1CN(C(C)=O)C3)Cn1c-2c(C2CCCCC2)c2ccc(C(=O)NS(=O)(=O)N(C)C)cc21 (centres unmarked),2.4 to 500,2.4 to 500
COc1ccc2c(c1)C1CC1(C(=O)N1C3CCCC1CN(C)C3)Cn1c-2c(C2CCCCC2)c2ccc(C(=O)NS(C)(=O)=O)cc21 (centres unmarked),2.4 to 500,2.4 to 500
COc1ccc2c(c1)C1CC1(C(=O)N1C3CCCC1CN(C)C3)Cn1c-2c(C2CCCCC2)c2ccc(C(=O)NS(=O)(=O)C3CC3)cc21 (centres unmarked),2.4 to 500,2.4 to 500
COc1ccc2c(c1)C1CC1(C(=O)N1C3COCC1CN(C)C3)Cn1c-2c(C2CCCCC2)c2ccc(C(=O)NS(=O)(=O)N(C)C)cc21 (centres unmarked),2.4 to 500,2.4 to 500
CCS(=O)(=O)NC(=O)c1ccc2c(C3CCCCC3)c3n(c2c1)CC1(C(=O)N2C4CCCC2CN(C)C4)CC1c1cc(OC)ccc1-3 (centres unmarked),2.4 to 500,2.4 to 500
CCCS(=O)(=O)NC(=O)c1ccc2c(C3CCCCC3)c3n(c2c1)CC1(C(=O)N2C4CCCC2CN(C)C4)CC1c1cc(OC)ccc1-3 (centres unmarked),2.4 to 500,2.4 to 500
COc1ccc2c(c1)C=C(C(=O)N1C3CCCC1CN(C)C3)Cn1c-2c(C2CCCCC2)c2ccc(C(=O)NS(=O)(=O)N(C)C)cc21,2.4 to 500,2.4 to 500
COc1ccc2c(c1)C1CC1(C(=O)N1C3CCCC1CN(C)C3)Cn1c-2c(C2CCCCC2)c2ccc(C(=O)NS(=O)(=O)N3CCOCC3)cc21 (centres unmarked),2.4 to 500,2.4 to 500
COc1ccc2c(c1)C1CC1(C(=O)N1C3CC1CN(C)C3)Cn1c-2c(C2CCCCC2)c2ccc(C(=O)NS(=O)(=O)CC3CC3)cc21 (centres unmarked),2.4 to 500,2.4 to 500
